Data as given in US7048907B2, “Synthesis, compositions and methods for the measurement of the concentration of stable-isotope labeled compounds in life forms and life form excretory products” (BioPhysics Assay Laboratory, Inc., priority 2001, dated 2006).

Experiments:
[1] = Kinetics of blood depletion and urine accumulation of chelates in the rat; assay type: in vivo; settings: average of three rats
Method: One half ml of Sm-DTPA (0.01 mg/kg), dissolved in saline (pH 7), is injected into the tail vein of three rats. Samples of blood are obtained at 10, 30 and 60 minutes following injection and analyzed for Sm-DTPA by neutron activation. The percent of starting amount of the Sm-DTPA at each time interval is presented in Table 18 (last column on right). Similarly, the accumulation of Sm-DTPA in the rat urine at two times is shown in the last column of Table 18.
One half ml of Technetium-99m-DTPA (1 millicurie), Gd-DTPA (0.05 mg/kg), and Sm-DTPA (0.01 mg/kg) are each dissolved in saline (pH 7), and are injected simultaneously into the tail vein of three rats. Samples of blood are obtained at 10, 30 and 60 minutes following injection and analyzed for ^99mTc-DTPA (gamma counting), Gd-DTPA (T1 relaxation) and Sm-DTPA (neutron activation).
One half ml of Sm-DTPA, La-DTPA and Eu-DTPA (each 0.01 mg/kg), dissolved in saline (pH 7) are injected simultaneously into the tail vein of three rats. Samples of blood are obtained at 10, 30 and 60 minutes following injection and analyzed for each element by neutron activation.
Samples of Sm-DTPA, La-DTPA and Eu-DTPA (0.5 ml; 0.01 mg/kg), each dissolved in saline (pH 7), are injected sequentially at 0, 20, and 40 minutes into the tail vein of three rats. Samples of blood are obtained at 10, 30 and 60 min following each injection and analyzed for each element by neutron activation.

[2] = Stability of chelates to autoclaving (CM-Sephadex assay); assay type: physicochemical; settings: for % of total / dpm: autoclaved 30 minutes at 121° C.
Method: A sample comprising 5 ml of Sm-DTPA, La-DTPA, and Eu-DTPA prepared in Examples 9, 10, and 11 were placed in 10 ml glass bottles, each capped with a grey butyl rubber cap, and the caps were crimped. Samples were autoclaved for 30 minutes at 121° C.
Five ml of each of Sm-DOTA, La-DOTA, and Eu-DOTA prepared in Examples 13, 14, and 15 were placed in 10 ml glass bottles capped with a grey butyl rubber cap and crimped. Samples were autoclaved for 30 minutes at 121° C. Samples were allowed to cool to room temperature and were assayed as described in Examples 25.

[3] = Assay of chelate on carboxymethyl (CM) Sephadex column (chelate formation, charge); assay type: physicochemical; settings: for time within which the chelate forms: room temperature, Tris pH 7.5
Method: Preparation of carboxymethyl sephadex column. To two 10 ml plastic pipets cut off at the 3 ml mark and plugged with glass wool at the bottom add enough slurry to form a 2 ml volume of the CM sephadex. Wash the packed resin with 6 ml of 1 M Tris buffer pH 7.5, and 6 ml of 0.01M Tris buffer pH 7.5. […] Collect the eluants of fractions as follows. Fraction 1.3 ml of 0.01 M Tris buffer pH 7.5 and allow to drain into column. Fraction 2.1 ml of sample (gadolinium-DTPA or gadolinium chloride) and allow to drain into column. Apply 3 ml of 0.01 M Tris buffer pH 7.5 and allow to drain into column. Fraction 3.3 ml of 0.01M Tris buffer pH 7.5 and allow to drain into column. Dry all fractions at 70° C. for 76 hours, dissolve in 1 ml of 1 mM HCl and assay by atomic absorption.
(§1) Preparation of carboxymethyl Sephadex column. To two 10 ml plastic pipets which had been cut off at the 3 ml mark and plugged with glass wool at the bottom, enough slurry was added to form a 2 ml volume of the CM Sephadex. The packed resin was wash with 6 ml of 1 M Tris buffer pH 7.5, and 6 ml of 0.01M Tris buffer pH 7.5. […] Fractions were applied as follows. Fraction 1. Three ml of 0.01 M Tris buffer pH 7.5 and allow to drain into column. Fraction 2. One ml of sample (samarium-DTPA or samarium chloride) and allow to drain into column. Apply 3 ml of 0.01 M Tris buffer pH 7.5 and allow to drain into column. Fraction 3. Three ml of 0.01M Tris buffer pH 7.5 and allow to drain into column. Collect the eluant of fractions 1 through 3. Fraction 4. Column and contents.
as §1, with “were” for “had been”, “washed” for “wash”, “(lanthanum-DTPA” for “(samarium-DTPA”, “lanthanum” for “samarium”
as §1, with “were” for “had been”, “washed” for “wash”, “(Europium-DTPA” for “(samarium-DTPA”, “Europium” for “samarium”
Preparation of carboxymethyl sephadex column. To a 10 ml plastic pipet cut off at the 3 ml mark and plugged with glass wool at the bottom, add enough slurry to form a 2 ml volume of the CM sephadex. Wash the packed resin with 6 ml of 1 M Tris buffer pH 7.5, and 6 ml of 0.01M Tris buffer pH 7.5. […] Apply fractions as follows. Fraction 1. One ml of sample A and allow to drain into column.

[4] = blood 10 min, Sm-DTPA, La-DTPA and Eu-DTPA (each 0.01 mg/kg i.v.) simultaneously administered (Example 31)
[5] = blood 10 min after each injection, Sm-DTPA, La-DTPA, Eu-DTPA (0.01 mg/kg i.v.) sequentially administered at 0, 20, 40 minutes (Example 32)
[6] = blood 30 min, Sm-DTPA, La-DTPA and Eu-DTPA simultaneously administered (Example 31)
[7] = blood 30 min after each injection, sequentially administered (Example 32)
[8] = blood 60 min, Sm-DTPA, La-DTPA and Eu-DTPA simultaneously administered (Example 31)
[9] = blood 60 min after each injection, sequentially administered (Example 32)
[10] = urine 30 min, Sm-DTPA, La-DTPA and Eu-DTPA simultaneously administered (Example 31)
[11] = urine 30 min, sequentially administered (Example 32)
[12] = urine 180 min, Sm-DTPA, La-DTPA and Eu-DTPA simultaneously administered (Example 31)
[13] = urine 180 min, sequentially administered (Example 32)
[14] = Fraction 1: sample diluted 1:10 then 2-3 ml 0.01M Tris pH 7.5 (eluate)
[15] = Fraction 2: 3 ml 0.01M Tris pH 7.5
[16] = Fraction 3: column and contents (retained)
[17] = Fraction 1: 3 ml 0.01M Tris pH 7.5 before sample
[18] = Fraction 2: 1 ml sample then 3 ml 0.01M Tris pH 7.5 (eluate)
[19] = Fraction 3: further 3 ml 0.01M Tris pH 7.5
[20] = Fraction 4: column and contents (retained)

| SMILES | Percent of initial injection, blood [1, 4] | Percent of initial injection, blood [1, 5] | Percent of initial injection, blood [1, 6] | Percent of initial injection, blood [1, 7] | Percent of initial injection, blood [1, 8] | Percent of initial injection, blood [1, 9] | Percent of initial injection, urine [1, 10] | Percent of initial injection, urine [1, 11] | Percent of initial injection, urine [1, 12] | Percent of initial injection, urine [1, 13] | % eluted from CM-Sephadex column following autoclaving [2] | % of total [2, 14] | dpm [2, 14] | % of total [2, 15] | dpm [2, 15] | % eluted from the CM-Sephadex column [3] | % of total [3, 17] | % of total [3, 18] | % of total [3, 19] | time within which the chelate forms [3] | also measured |
| --- | --- | --- | --- | --- | --- | --- | --- | --- | --- | --- | --- | --- | --- | --- | --- | --- | --- | --- | --- | --- | --- |
| O=C([O-])CN(CCN(CC(=O)[O-])CC(=O)[O-])CCN(CC(=O)[O-])CC(=O)[O-].[Eu+3] [Eu-DTPA] | 87% of initial injection | 87% of initial injection | 62% of initial injection | 64% of initial injection | 33% of initial injection | 34% of initial injection | 21% of initial injection | 26% of initial injection | 96% of initial injection | 97% of initial injection | 100% | 97 % of total | 380954 dpm | 3 % of total | 13226 dpm | 100% | 0 % of total | 100 % of total | 0 % of total | ≤ 5 min | % of total [2, 16]: 0 % of total; dpm [2, 16]: 0 dpm; dpm [3, 17]: 0 dpm; dpm [3, 18]: 22115 dpm; dpm [3, 19]: 0 dpm; % of total [3, 20]: 0 % of total; dpm [3, 20]: 0 dpm |
| O=C([O-])CN(CCN(CC(=O)[O-])CC(=O)O)CCN(CC(=O)[O-])CC(=O)O.[Gd+3] [Gd-DTPA, Gd-diethylenetriaminepentaacetic acid] | – | – | – | – | – | – | – | – | – | – | – | – | – | – | – | 100% | 0 % of total | 100 % of total | 0 % of total | ≤ 5 min | Percent of initial injection, blood ([1]; blood 10 min after i.v. injection, ^99mTc-DTPA, Gd-DTPA and Sm-DTPA simultaneously administered (Example 30)): 83% of initial injection; Percent of initial injection, blood ([1]; blood 30 min, ^99mTc-DTPA, Gd-DTPA and Sm-DTPA simultaneously administered (Example 30)): 65% of initial injection; Percent of initial injection, blood ([1]; blood 60 min, ^99mTc-DTPA, Gd-DTPA and Sm-DTPA simultaneously administered (Example 30)): 35% of initial injection; Percent of initial injection, urine ([1]; urine 30 min, ^99mTc-DTPA, Gd-DTPA and Sm-DTPA simultaneously administered (Example 30)): 22% of initial injection; Percent of initial injection, urine ([1]; urine 180 min, ^99mTc-DTPA, Gd-DTPA and Sm-DTPA simultaneously administered (Example 30)): 94% of initial injection |
| O=C([O-])CN(CCN(CC(=O)[O-])CC(=O)[O-])CCN(CC(=O)[O-])CC(=O)[O-].[La+3] [La-DTPA] | 85% of initial injection | 82% of initial injection | 63% of initial injection | 62% of initial injection | 33% of initial injection | 32% of initial injection | 23% of initial injection | 25% of initial injection | 92% of initial injection | 95% of initial injection | 100% | 97 % of total | 411400 dpm | 3 % of total | 12180 dpm | 100% | 0 % of total | 100 % of total | 0 % of total | ≤ 5 min | % of total [2, 16]: 0 % of total; dpm [2, 16]: 0 dpm; dpm [3, 17]: 0 dpm; dpm [3, 18]: 489692 dpm; dpm [3, 19]: 0 dpm; % of total [3, 20]: 0 % of total; dpm [3, 20]: 0 dpm |
